Target: T1, IMP-1 (Serratia marcescens, UniProt P52699)
T1 construct: made in house
Assay: Library screening, nitrocefin hydrolysis by IMP-1
Type: biochemical
Settings: 100 μM compound, 10 nM IMP-1, 100 μM nitrocefin, 1 h
From the text: Screening compounds were provided from the curated collection of an in-house small-molecule chemical library (the chemical library of the Institute of Transformative Bio-Molecules [ITbM]). The library is composed of structurally diverse molecules, including synthetic molecules with unknown activity, known enzyme inhibitors, approved drugs, and natural products. Some of these molecules are commercially available from several worldwide chemical suppliers, whereas some are structurally novel molecules synthesized in-house by ITbM. All compounds were dissolved in dimethyl sulfoxide (DMSO) at a concentration of 10 mM and stored at −20°C until further use. We screened 22,671 compounds in 96-well flat plates using nitrocefin as a reporter substrate ([37]). Each well included 20 mM HEPES-NaOH buffer (pH 7.5) containing 10 nM IMP-1, 100 μM nitrocefin, and 100 μM concentrations of the tested compounds. The absorbance (Abs) at 482 nm was measured after incubation for 1 h at room temperature. The inhibitory effect of compounds against IMP-1 was evaluated using the following equation: Residual ratio=Abs482 nm compound/Abs482 nm no compound

T1 sequence (P52699 19-246 limits assumed): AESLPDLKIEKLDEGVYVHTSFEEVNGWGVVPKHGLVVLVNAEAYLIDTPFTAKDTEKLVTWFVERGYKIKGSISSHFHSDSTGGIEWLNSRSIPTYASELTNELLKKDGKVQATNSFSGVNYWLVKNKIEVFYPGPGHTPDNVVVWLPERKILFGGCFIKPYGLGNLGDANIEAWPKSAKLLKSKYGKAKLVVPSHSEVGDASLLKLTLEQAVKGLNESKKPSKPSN

O=C([O-])C1=CS[C@@H]2/C(=C\c3cn4c(n3)COCC4)C(=O)N12.[Na+] [BLI-489]
Residual ratio (Abs482 compound/no compound): < 0.6
